Experiments:
[1] = test system: Interleukin-1 beta (IL1β); assay: Assay of IL1β in keratinocytes treated with 10 μg/mL PMA; assay type: cell-based, human; details: 0.1 μM, 24 h pretreatment; for IL1Beta Mean: then 10 μg/mL PMA overnight; for IL1Beta Increase (%): versus PMA
Procedure: (§1) Release of the cytokines Interleukin-1 beta (IL1β) and Prostaglandin E2 (PGE2) was analysed. […] Inflammation was then induced by addition of 10 μg/mL PMA overnight. An assay of IL1β and PGE2 was then performed in the cell culture supernatants. In parallel, the number of biologically active cells was determined by a neutral red assay. The amount of cytokine measured for each condition was normalised to the number of living cells determined by the neutral red assay. The significance of the results was verified by a one-factor analysis of variance followed by Tukey's test (GraphPad PRISM software version 5.02, GraphPad Software, San Diego Calif. USA).

[2] = test system: Prostaglandin E2 (PGE2); assay: Assay of PGE2 in keratinocytes treated with 10 μg/mL PMA; assay type: cell-based, human; details: 0.1 μM; for PGE2 Mean / PGE2 Increase (%): 24 h pretreatment; for PGE2 Mean: then 10 μg/mL PMA overnight; for PGE2 Increase (%): versus PMA
Procedure: as §1

[3] = test system: Normal human keratinocytes; assay: Production of reactive oxygen species (DCFH-DA) in keratinocytes treated with H2O2; assay type: cell-based; details: for ROS Mean: 24 h preincubation and during 100 μM H2O2 20 min, normalised to living cells; for ROS Increase (%): versus 100 μM H2O2; for ROS production following H2O2 treatment (in words): antioxidant references, 10 μM quercetin or 500 μM vitamin C
Procedure: The antioxidant effect of the polyphenol-enriched extract of Vitex negundo is evaluated using the incorporation of DCFHDA (2′,7′-dichlorofluorescin diacetate) into keratinocytes in culture. This molecule is a nonfluorescent marker in an unoxidised state. Under oxidising conditions (in this case stress induced by hydrogen peroxide, H2O2), DCFHDA will be degraded to DCF, a molecule which will emit fluorescence. […] Normal human keratinocytes were preincubated for 24 hours in the presence of 0.0005%, 0.001% and 0.005% (w/v) concentrations of the polyphenol-enriched extract of Vitex negundo, and 0.016%, 0.03% and 0.16% monopropylene glycol (controls corresponding to the solvent concentrations contained in the concentrations of Vitex negundo extract studied), 10 μM quercetin or 500 μM vitamin C (the latter two molecules serving as antioxidant reference). The cells are then treated for 1 hour in the presence of 0.5 mM DCFH-DA. Oxidation is induced by addition of 100 μM H2O2 for 20 minutes. A second treatment with the tested products is performed simultaneously with H2O2 stress (at the same concentrations as the pretreatment). Lastly, a measurement of fluorescence density (DFU) corresponding to the amount of ROS is performed using a microplate reader. In parallel, the number of biologically active cells was determined by a neutral red assay. The amount of ROS (reactive oxygen species) measured for each condition was normalised to the number of living cells determined by the neutral red assay. The significance of the results was verified by a one-factor analysis of variance followed by Tukey's test (GraphPad PRISM software version 5.02, GraphPad Software, San Diego Calif. USA).

[4] = test system: human sensory neuron/old keratinocyte cocultures; assay: Neurite length of sensory neurons in neuron/keratinocyte co-cultures; assay type: cell-based; details: 50 ng/mL
Procedure: Sensory neurons are derived from hiPS cells obtained from human fibroblasts. hiPS cells were cocultured with keratinocytes […]. The co-cultures were treated with the Vitex negundo extract at various concentrations (0.003%, 0.001%, 0.0005%, 0.0001%, 0.00005%, 0.00001% (w/v)), with 0.1% monopropylene glycol (extraction solvent control) and with 50 ng/mL nerve growth factor (NGF) serving as positive reference for dendrite elongation.
After 6 days of co-culture, the cells were fixed with 2% paraformaldehyde solution and then labelled with an anti-β-tubulin antibody. Labelling was observed using a fluorescence microscope and 20 images were acquired per co-culture. The length of the sensory neuron projections was measured and normalised by the number of labelled cell bodies. All statistics were done using the t-test and the ANOVA test (*p<0.05; **p<0.01; ***p<0.001).

Compound	IL1Beta Mean [1]	IL1Beta Increase (%) [1]	PGE2 Mean [2]	PGE2 Increase (%) [2]	ROS production following H2O2 treatment (in words) [3]	also measured
C[C@@H]1C[C@H]2[C@@H]3CCC4=CC(=O)C=C[C@]4(C)[C@@]3(F)[C@@H](O)C[C@]2(C)[C@@]1(O)C(=O)CO [Dexamethasone, dexamethasone]	0.120 (pg/mL)/OD neutral red	−34%	1339.332 (pg/mL)/OD neutral red	−43%		
COc1ccc2c(c1)c(CC(=O)O)c(C)n2C(=O)c1ccc(Cl)cc1 [Indometacin, indomethacin]	0.172 (pg/mL)/OD neutral red	−5%	416.328 (pg/mL)/OD neutral red	−82%		release of PGE2 (in words) ([2]; pretreatment for 24 hours): significantly decreased
O=c1c(O)c(-c2ccc(O)c(O)c2)oc2cc(O)cc(O)c12 [quercetin]					significantly decreased	ROS Mean ([3]; 10 μmol/L): 24411 fluorescence units; ROS Increase (%) ([3]; 10 μmol/L): −82%
O=C1O[C@H]([C@@H](O)CO)C(O)=C1O [vitamin C]					significantly decreased	ROS Mean ([3]; 500 μM): 11940 fluorescence units; ROS Increase (%) ([3]; 500 μM): −91%
NGF: nerve growth factor (NGF) serving as positive reference for dendrite elongation						total neurite length and neurite length per cell (in words) [4]: significantly increased; Neurite length per cell ([4]; 6 days of co-culture, control cells 143 ± 16): 212 ± 23 (*) arbitrary units; Total neurite length ([4]; 6 days of co-culture, control cells 6865 ± 633): 10393 ± 1849 (**) arbitrary units
